Results published in US20240423927A1, “COMPOSITIONS AND METHODS FOR USE IN IMMUNOTHERAPY” (INSTITUT CURIE, priority 2021, published 2024).

Tests used:
MCA-OVA tumor [1] = experiment: Survival of treated MCA-OVA tumor-bearing mice; type: in vivo, C57BL/6J mice; conditions: Example 1; log-rank test; cGAMP-VLP 50 ng cGAMP s.c., Imatinib 10 mg/kg i.p.
[2] = system: tumor-specific CD8 and CD4 T cell responses (PBMCs); experiment: Ex vivo stimulation assay: IFN-γ ELISPOT of PBMCs stimulated with OVA and p15 peptides; type: in vivo, C57BL/6J mice; conditions: Example 1, four days after third s.c. injection, cGAMP-VLP 50 ng cGAMP s.c., Imatinib 10 mg/kg i.p.
Excerpt: […] Mice were bled in the retro-orbital sinus and PBMCs were isolated from whole blood by lysing the red blood cells. […] Spots were developed using a mouse IFN-γ ELISPOT antibody (Diaclone) according to the manufacturer's instructions, and the number of spots enumerated using an ImmunoSpot analyzer.

MCA-OVA tumor [3] = experiment: Tumor growth monitoring in MCA-OVA tumor model; type: in vivo, C57BL/6J mice; conditions: Example 1; cGAMP-VLP 50 ng cGAMP s.c. three times, Imatinib 10 mg/kg i.p. days 6-10
STING [4] = target: STING (Homo sapiens, UniProt Q86WV6); conditions: compared with cGAMP, reporter assays; cited from earlier work
Sequence of STING (Homo sapiens, UniProt Q86WV6) (Q86WV6 whole entry): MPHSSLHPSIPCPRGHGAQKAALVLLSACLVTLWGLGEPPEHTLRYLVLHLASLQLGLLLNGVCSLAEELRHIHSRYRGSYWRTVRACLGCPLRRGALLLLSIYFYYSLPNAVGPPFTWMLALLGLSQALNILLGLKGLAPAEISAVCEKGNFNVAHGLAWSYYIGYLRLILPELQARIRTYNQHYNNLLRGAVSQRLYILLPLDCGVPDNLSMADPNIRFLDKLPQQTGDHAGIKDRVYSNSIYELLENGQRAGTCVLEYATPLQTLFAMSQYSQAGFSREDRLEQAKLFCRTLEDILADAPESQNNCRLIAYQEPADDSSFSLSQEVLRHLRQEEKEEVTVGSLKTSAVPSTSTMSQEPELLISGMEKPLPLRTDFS

STING [5] = conditions: comparative statement (hSTING vs mSTING; or vs cGAMP); cited from earlier work

Row | Compound | Survival (death event: tumor size >2 cm^3) (MCA-OVA tumor [1]) | Tumor-specific T cell responses in peripheral blood (IFN-γ ELISPOT) [2] | Tumor growth (MCA-OVA tumor [3]) | Potency for inducing type I IFN (STING [4]) | Affinity/binding to STING (STING [5])
1 | Cc1ccc(NC(=O)c2ccc(CN3CCN(C)CC3)cc2)cc1Nc1nccc(-c2cccnc2)n1 [Imatinib] | did not show survival benefit compared to PBS treatment | did not induce tumor-specific T cell responses compared to the PBS group | no effect on the tumor growth compared to control group | – | –
2 | COc1c(O)cc2oc3cc(O)c(CC=C(C)C)c(O)c3c(=O)c2c1CC=C(C)C [α-mangostin] | – | – | – | weaker potency for inducing type I IFN compared with cGAMP | higher affinity to human (h)STING than to mSTING
3 | Diaminobenzimidazole | – | – | – | – | enhanced binding to STING and cellular function as compared to cGAMP
